Assay results published in patent US6737383B1, “Herbicidal oxadiazolidines” (priority 1999, dated 2004).

Key:
sugar beet = experiment: Test B pre/postemergence sugar beet; format: in vivo, Beta vulgaris
Procedure, shortened: (§1)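 Test chemicals in a non-phytotoxic solvent mixture with surfactant were sprayed preemergence onto planted seeds and postemergence onto plants 2 to 18 cm tall (1- to 4-leaf stage). After twelve to sixteen days in a greenhouse, injury was visually rated against untreated controls from 0 (no effect) to 10 (complete control).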

crabgrass = experiment: Test B pre/postemergence crabgrass; format: in vivo, Digitaria sanguinalis
Procedure, shortened: as §1

soybean = experiment: Test B pre/postemergence soybean; format: in vivo, Glycine max
Procedure, shortened: as §1

giant foxtail = experiment: Test B pre/postemergence giant foxtail; format: in vivo, Setaria faberii
Procedure, shortened: as §1

[1] = Postemergence, Rate 125 g/ha, scale 0 to 10, 0 is no effect, 10 is complete control
[2] = Postemergence, Rate 250 g/ha, scale 0 to 10, 0 is no effect, 10 is complete control
[3] = Preemergence, Rate 62 g/ha, scale 0 to 10 (0 no effect, 10 complete control)
[4] = Preemergence, Rate 250 g/ha, scale of 0 to 10 where 0 is no effect and 10 is complete control
[5] = Preemergence, Rate 500 g/ha, scale of 0 to 10 where 0 is no effect and 10 is complete control
[6] = Rate 62 g/ha, Postemergence, scale of 0 to 10 where 0 is no effect and 10 is complete control
[7] = Rate 500 g/ha, Postemergence, scale 0 to 10, 0 no effect, 10 complete control
[8] = Postemergence, Rate 500 g/ha, scale of 0 to 10 where 0 is no effect and 10 is complete control
[9] = Preemergence, Rate 125 g/ha, scale of 0 to 10 where 0 is no effect and 10 is complete control
[10] = Preemergence, Rate 250 g/ha, scale 0 to 10, 0 is no effect, 10 is complete control
[11] = Preemergence, Rate 500 g/ha, scale 0 to 10, 0 is no effect, 10 is complete control

## CC(C)N(C(=O)n1oc(=O)n(N2C(C)CCCC2C)c1=O)c1ccc(F)cc1F (stereo not shown) [Compound 383]
Sugar beet; [1]
  Plant response rating, Sugarbeets: 0
Sugar beet; [2]
  Plant response rating, Sugarbeets: 0
Sugar beet; [3]
  Plant response rating, Sugarbeets: 0
Sugar beet; Preemergence, Rate 125 g/ha
  Sugarbeets plant response rating (0 to 10 scale): 0
Sugar beet; [4]
  Sugarbeets plant response rating: 0
Sugar beet; [5]
  Sugarbeets plant response rating: 0
Sugar beet; [6]
  Sugarbeets plant response rating: 0
Sugar beet; [7]
  Plant response rating, Sugarbeets: 0
crabgrass; [1]
  Plant response rating, Crabgrass: 1
crabgrass; [2]
  Plant response rating, Crabgrass: 4
crabgrass; [3]
  Plant response rating, Crabgrass: 6
crabgrass; Preemergence, Rate 125 g/ha
  Crabgrass plant response rating (0 to 10 scale): 8
crabgrass; [4]
  Crabgrass plant response rating: 9
crabgrass; [5]
  Crabgrass plant response rating: 10
crabgrass; [6]
  Crabgrass plant response rating: 0
crabgrass; [7]
  Plant response rating, Crabgrass: 4
soybean; [1]
  Plant response rating, Soybean: 3
soybean; [2]
  Plant response rating, Soybean: 3
soybean; [3]
  Plant response rating, Soybean: 0
soybean; Preemergence, Rate 125 g/ha
  Soybean plant response rating (0 to 10 scale): 0
soybean; [4]
  Soybean plant response rating: 0
soybean; [5]
  Soybean plant response rating: 0
soybean; [6]
  Soybean plant response rating: 2
soybean; [7]
  Plant response rating, Soybean: 5
Giant foxtail; [1]
  Plant response rating, Giant foxtail: 0
Giant foxtail; [2]
  Plant response rating, Giant foxtail: 6
Giant foxtail; [3]
  Plant response rating, Giant foxtail: 0
Giant foxtail; Preemergence, Rate 125 g/ha
  Giant foxtail plant response rating (0 to 10 scale): 7
Giant foxtail; [4]
  Giant foxtail plant response rating: 10
Giant foxtail; [5]
  Giant foxtail plant response rating: 10
Giant foxtail; [6]
  Giant foxtail plant response rating: 0
Giant foxtail; [7]
  Plant response rating, Giant foxtail: 6

## CC(C)N(C(=O)n1oc(=O)n(N2CCOCC2)c1=O)c1ccc(F)cc1 [Compound 385]
Sugar beet; [1]
  Plant response rating, Sugarbeets: 0
Sugar beet; [2]
  Plant response rating, Sugarbeets: 0
Sugar beet; [3]
  Plant response rating, Sugarbeets: 0
Sugar beet; Preemergence, Rate 125 g/ha
  Sugarbeets plant response rating (0 to 10 scale): 1
Sugar beet; [4]
  Sugarbeets plant response rating: 2
Sugar beet; [5]
  Sugarbeets plant response rating: 7
Sugar beet; [6]
  Sugarbeets plant response rating: 0
Sugar beet; [7]
  Plant response rating, Sugarbeets: 0
crabgrass; [1]
  Plant response rating, Crabgrass: 7
crabgrass; [2]
  Plant response rating, Crabgrass: 9
crabgrass; [3]
  Plant response rating, Crabgrass: 3
crabgrass; Preemergence, Rate 125 g/ha
  Crabgrass plant response rating (0 to 10 scale): 9
crabgrass; [4]
  Crabgrass plant response rating: 9
crabgrass; [5]
  Crabgrass plant response rating: 10
crabgrass; [6]
  Crabgrass plant response rating: 6
crabgrass; [7]
  Plant response rating, Crabgrass: 9
soybean; [1]
  Plant response rating, Soybean: 2
soybean; [2]
  Plant response rating, Soybean: 2
soybean; [3]
  Plant response rating, Soybean: 0
soybean; Preemergence, Rate 125 g/ha
  Soybean plant response rating (0 to 10 scale): 0
soybean; [4]
  Soybean plant response rating: 0
soybean; [5]
  Soybean plant response rating: 0
soybean; [6]
  Soybean plant response rating: 2
soybean; [7]
  Plant response rating, Soybean: 2
Giant foxtail; [1]
  Plant response rating, Giant foxtail: 9
Giant foxtail; [2]
  Plant response rating, Giant foxtail: 9
Giant foxtail; [3]
  Plant response rating, Giant foxtail: 3
Giant foxtail; Preemergence, Rate 125 g/ha
  Giant foxtail plant response rating (0 to 10 scale): 10
Giant foxtail; [4]
  Giant foxtail plant response rating: 10
Giant foxtail; [5]
  Giant foxtail plant response rating: 10
Giant foxtail; [6]
  Giant foxtail plant response rating: 7
Giant foxtail; [7]
  Plant response rating, Giant foxtail: 9

## CC(C)N(C(=O)n1oc(=O)n(CC#N)c1=O)c1ccc(F)cc1 [Compound 395]
Sugar beet; [2]
  Plant response rating, Sugarbeets: 0
Sugar beet; [8]
  Sugarbeets plant response rating: 0
Sugar beet; [3]
  Plant response rating, Sugarbeets: 0
Sugar beet; [9]
  Plant response rating, Sugarbeets: 0
Sugar beet; [10]
  Sugarbeets plant response rating: 0
Sugar beet; [11]
  Sugarbeets plant response rating: 0
Sugar beet; [6]
  Sugarbeets plant response rating: 0
crabgrass; [1]
  Plant response rating, Crabgrass: 2
crabgrass; [2]
  Plant response rating, Crabgrass: 2
crabgrass; [8]
  Crabgrass plant response rating: 5
crabgrass; [3]
  Plant response rating, Crabgrass: 0
crabgrass; [9]
  Plant response rating, Crabgrass: 0
crabgrass; [10]
  Crabgrass plant response rating: 0
crabgrass; [11]
  Crabgrass plant response rating: 2
crabgrass; [6]
  Crabgrass plant response rating: 0
soybean; [2]
  Plant response rating, Soybean: 1
soybean; [8]
  Soybean plant response rating: 1
soybean; [3]
  Plant response rating, Soybean: 0
soybean; [9]
  Plant response rating, Soybean: 0
soybean; [10]
  Soybean plant response rating: 0
soybean; [11]
  Soybean plant response rating: 0
soybean; [6]
  Soybean plant response rating: 0
Giant foxtail; [1]
  Plant response rating, Giant foxtail: 3
Giant foxtail; [2]
  Plant response rating, Giant foxtail: 5
Giant foxtail; [8]
  Giant foxtail plant response rating: 6
Giant foxtail; [3]
  Plant response rating, Giant foxtail: 0
Giant foxtail; [9]
  Plant response rating, Giant foxtail: 0
Giant foxtail; [10]
  Giant foxtail plant response rating: 0
Giant foxtail; [11]
  Giant foxtail plant response rating: 2
Giant foxtail; [6]
  Giant foxtail plant response rating: 0
